Data set [1] concerns MCPP-induced Hypolocomotion. Put plainly: Reversal of MCPP-induced hypolocomotion. The format is in vivo. The note with it: po, procedure of WO 94/04533, read-out: ID50 (the source's name). The text has this:
Reversal of MCPP-induced Hypolocomotion

Structures can show the parent of a compound that is named as a salt.

Consider `COc1cc2c(cc1C(F)(F)F)N(C(=O)Nc1cccc(-c3cccnc3)c1)CC2` [Example 1], for which the ED50 in data set [1] was 0.5 to 5.5 mg/kg.

As a reminder, the melting point is the temperature, or range, at which the solid turns liquid. `CSc1cc2c(cc1C(F)(F)F)N(C(=O)Nc1cccc(-c3cccnc3)c1)CC2` [Example 3, 1-[(3-Pyridyl)-3-phenyl Carbamoyl]-5-methylthio-6-trifluoromethyl Indoline] registered a melting point of 208 to 210 °C. In data set [1], the ED50 lay in the range of 0.5 to 5.5 mg/kg.

Regarding `COc1cc2c(cc1C(F)(F)F)N(C(=O)Nc1ccc(C)c(-c3cccnc3)c1)CC2` [Example 7, 1-[4-Methyl-3-(3-Pyridyl)phenylcarbamoyl]-5-methoxy-6-trifluoromethyl Indoline], the melting point lay in the range of 211 to 212 °C. In addition, the ED50 in data set [1] is 0.5 to 5.5 mg/kg.

Take `COc1cc2c(cc1C(F)(F)F)N(C(=O)Nc1cc(F)cc(-c3cccnc3)c1)CC2` [Example 8, 1-[3-Fluoro-5-(3-pyridyl)phenylcarbamoyl]-5-methoxy-6-trifluoromethyl Indoline]: the ED50 in data set [1] was in the range of 0.5 to 5.5 mg/kg.

Take `COc1cc2c(cc1C(F)(F)F)N(C(=O)Nc1cc(F)cc(-c3cnccc3C)c1)CC2` [Example 21, 1-(3-Fluoro5-(4-methyl-3-pyridyl)phenylcarbamoyl)-5-methoxy-6-trifluoromethylindoline]: the melting point was in the range of 191 to 195 °C. For the same compound, the ED50 in data set [1] lay in the range of 0.5 to 5.5 mg/kg.

`CSc1cc2c(cc1C(F)(F)F)N(C(=O)Nc1ccc(C)c(-c3cccnc3)c1)CC2` [Example 24, 1-(4-Methyl-3-(pyrid-3-yl)phenylcarbamoyl)-5-thiomethyl-6-trifluoromethyl Indoline] registered a melting point of 221 to 223 °C. For the same compound, in data set [1], the ED50 is 0.5 to 5.5 mg/kg.

For `CSc1cc2c(cc1C(F)(F)F)N(C(=O)Nc1cc(F)cc(-c3cccnc3)c1)CC2` [Example 25, 1-(3-Fluoro-5-(pyrid-3-yl)phenylcarbamoyl)5-thiomethyl-6-trifluoromethyl-indoline Hydrochloride], in data set [1], the ED50 was 0.5 to 5.5 mg/kg.

Take `COc1cc2c(cc1C(F)(F)F)N(C(=O)Nc1ccc(Cl)c(-c3cccnc3)c1)CC2` [Example 26, 1-(4-Chloro-3-(pyrid-3-yl)phenylcarbamoyl)-5-methoxy-6-trifluoromethylindoline]: the melting point was in the range of 210 to 213 °C. The ED50 in data set [1] lay in the range of 0.5 to 5.5 mg/kg.

`COc1ccc(NC(=O)N2CCc3cc(OC)c(C(F)(F)F)cc32)cc1-c1cccnc1` [Example 31, 1-[4-Methoxy-3(pyrid-3-yl)phenylcarbamoyl]-5-methoxy-6-trifluoromethylindoline]: in data set [1], the ED50 was 0.5 to 5.5 mg/kg.

As to `COc1cc2c(cc1C(F)(F)F)N(C(=O)Nc1cccc(-c3cncnc3)c1)CC2` [Example 40, 1-[3-(5-Pyrimidyl)phenylcarbamoyl]-5-methoxy-6-trifluoromethyl-indoline], the ED50 in data set [1] was 0.5 to 5.5 mg/kg.

`CCc1cc(NC(=O)N2CCc3cc(OC)c(C(F)(F)F)cc32)cc(-c2cccnc2)c1` [Example 42, 1-[5-Ethyl-3-(pyrid-3-yl)phenylcarbamoyl]-5-methoxy-6-trifluoromethylindoline] gave a melting point of 205 to 207 °C. Moreover, the ED50 in data set [1] lay in the range of 0.5 to 5.5 mg/kg.

Consider `CSc1cc2c(cc1C(F)(F)F)N(C(=O)Nc1ccc(Oc3cccnc3)nc1)CC2` [Example 52], for which the melting point is 193 to 194 °C. Further, in data set [1], the ED50 was 0.5 to 5.5 mg/kg.

On to `COc1cc2c(cc1C(F)(F)F)N(C(=O)Nc1ccc(Oc3cccnc3)nc1)CC2` [Example 53, 5-Methoxy-6-trifluoromethyl-1-[6(pyridin-3-yloxy)pyridin-3-ylcarbamoyl]indoline], for which the melting point was in the range of 202 to 204 °C. The ED50 in data set [1] was 0.5 to 5.5 mg/kg.

Regarding `COc1cc2c(cc1C(F)(F)F)N(C(=O)Nc1ccc(OCc3ccncc3)cc1)CC2` [Example 54, 5-Methoxy-6-trifluoromethyl-1-[4-(pyridin-4-ylmethyloxy)phenyl Carbamoyl]indoline], the melting point was 205 to 207 °C. Further, in data set [1], the ED50 lay within 0.5 to 5.5 mg/kg.

Compound `COc1cc2c(cc1C(F)(F)F)N(C(=O)Nc1ccc(OCc3ccncc3)nc1)CC2` [Example 55, 5-Methoxy-6-trifluoromethyl-1-[6-(pyridin-4-ylmethyloxy)pyridin-3-ylcarbamoyl]indoline] showed a melting point of 187 to 189 °C. In addition, the ED50 in data set [1] fell in the range of 0.5 to 5.5 mg/kg.

Take `COc1cc2c(cc1C(F)(F)F)N(C(=O)Nc1ccc(F)c(-c3cccnc3)c1)CC2` [Example 77, 1-[4-Fluoro-3-(3-pyridyl)phenylcarbamoyl]-5-methoxy-6-trifluoromethyl Indoline]: the melting point was in the range of 210 to 212 °C. Further, the ED50 in data set [1] fell in the range of 0.5 to 5.5 mg/kg.

With `COc1cc2c(cc1C(F)(F)F)N(C(=O)Nc1cc(F)cc(-c3cncnc3)c1)CC2` [Example 78, 1-[3-Fluoro-5-(pyrimidin-5-yl)phenylcarbamoyl]-5-methoxy-6-trifluoromethyl Indoline], the ED50 in data set [1] lay in the range of 0.5 to 5.5 mg/kg.

For `COc1cc2c(cc1C(F)(F)F)N(C(=O)Nc1ccc(Cl)c(-c3cnccc3C)c1)CC2` [Example 79, 1-(4-Chloro-3-(4-methyl-3-pyridyl)phenylcarbamoyl]-5-methoxy-6-trifluoromethylindoline], the ED50 in data set [1] was 0.5 to 5.5 mg/kg.

Consider `COc1cc2c(cc1C(F)(F)F)N(C(=O)Nc1cc3c(c(-c4cccnc4)c1)OCC3)CC2` [Example 80, 1-[2,3-Dihydro-7-(pyrid-3-yl)benzofuran-5-ylcarbamoyl]-5-methoxy-6-trifluoromethyl Indoline], for which, in data set [1], the ED50 lay in the range of 0.5 to 5.5 mg/kg.

As for `COc1cc2c(cc1C(F)(F)F)N(C(=O)Nc1ccc(Oc3cccnc3C)nc1)CC2` [Example 81, 5-Methoxy-6-trifluoromethyl-1-[6-(2-methylpyridin-3-yloxy)pyridin-3-ylcarbamoyl]indoline], the melting point lay in the range of 227 to 230 °C. For the same compound, the ED50 in data set [1] was 0.5 to 5.5 mg/kg.

Compound `CSc1cc2c(cc1C(F)(F)F)N(C(=O)Nc1ccc(Cc3ccncc3)cc1)CC2` [Example 147] returned a melting point of 206 to 209 °C.

`CSc1cc2c(cc1C(F)(F)F)N(C(=O)Nc1cccc(C(=O)NCc3cccnc3)c1)CC2` [Example 148] gave a melting point of 210 to 215 °C.

`CSc1cc2c(cc1C(F)(F)F)N(C(=O)Nc1cccc(C(=O)CCc3ccccn3)c1)CC2` [Example 149] yielded a melting point of 145 to 146 °C.

The compound `CSc1cc2c(cc1C(F)(F)F)N(C(=O)Nc1cccc(C(O)CCc3ccccn3)c1)CC2` (centres unmarked) [Example 150] showed a melting point of 78 to 80 °C.

The compound `CSc1cc2c(cc1C(F)(F)F)N(C(=O)Nc1ccc(C(=O)NCc3ccncc3)cc1)CC2` [Example 151] showed a melting point of 138 to 140 °C.

`CSc1cc2c(cc1C(F)(F)F)N(C(=O)Nc1cccc(C(=O)NCCc3ccccn3)c1)CC2` [Example 153]: the melting point was 92 to 94 °C.

`CSc1cc2c(cc1C(F)(F)F)N(C(=O)Nc1cccc(C(=O)NCc3ccccn3)c1)CC2` [Example 154] yielded a melting point of 116 to 118 °C.

`COc1cc2c(cc1C(F)(F)F)N(C(=O)Nc1ccc(Oc3ccccc3)nc1)CC2` [Example 155]: the melting point was in the range of 202 to 203 °C.

`COc1cc2c(cc1C(F)(F)F)N(C(=O)Nc1ccc(Oc3c(C)ccnc3C)nc1)CC2` [Example 156] showed a melting point of 218 to 221 °C.

`COc1cc2c(cc1C(F)(F)F)N(C(=O)Nc1ccc(Oc3ccccc3C)nc1)CC2` [Example 157] came in with a melting point of 226 to 228 °C.

With `COc1cccc(Oc2ccc(NC(=O)N3CCc4cc(OC)c(C(F)(F)F)cc43)cn2)c1` [Example 158], the melting point fell in the range of 188 to 189 °C.

For the compound `COc1cc2c(cc1C(F)(F)F)N(C(=O)Nc1ccc(Oc3ccc(F)cc3C)nc1)CC2` [Example 159], the melting point lay within 208 to 209 °C.

`COc1cc2c(cc1C(F)(F)F)N(C(=O)Nc1ccc(Oc3ccc(C)cc3C)nc1)CC2` [Example 160] had a melting point of 236 to 238 °C.

For the compound `COc1cc2c(cc1C(F)(F)F)N(C(=O)Nc1ccc(Oc3cccnc3Cl)nc1)CC2` [Example 161], the melting point was 238 to 240 °C.

In turn, `CCc1ccccc1Oc1ccc(NC(=O)N2CCc3cc(OC)c(C(F)(F)F)cc32)cn1` [Example 162] registered a melting point of 215 to 220 °C.

Compound `COc1cc2c(cc1C(F)(F)F)N(C(=O)Nc1ccc(Oc3ccc(C(N)=O)cc3)nc1)CC2` [Example 163] had a melting point of 245 to 248 °C.

For the compound `COc1cc2c(cc1C(F)(F)F)N(C(=O)Nc1ccc(Oc3ccccc3C(F)(F)F)nc1)CC2` [Example 164], the melting point is 237 to 238 °C.

`COc1cc2c(cc1C(F)(F)F)N(C(=O)Nc1ccc(Oc3cccc(C(F)(F)F)c3)nc1)CC2` [Example 165] came in with a melting point of 193 to 194 °C.

Compound `COc1cc2c(cc1C(F)(F)F)N(C(=O)Nc1ccc(Oc3ccc(C)nc3C)nc1)CC2` [Example 166] returned a melting point of 230 to 233 °C.

For `Cc1ncccc1Oc1ccc(NC(=O)N2CCc3cc(Cl)c(Cl)cc32)cn1` [Example 168], the melting point is 225 to 228 °C.

`O=C(Nc1ccc(F)c(-c2cncnc2)c1)N1CCc2cc(Cl)c(Cl)cc21` [Example 169] gave a melting point of 132 to 135 °C.

Compound `O=C(Nc1cc(F)cc(-c2cncnc2)c1)N1CCc2cc(Cl)c(Cl)cc21` [Example 170] came in with a melting point of 260 °C.

`Cc1cc2c(cc1Cl)N(C(=O)Nc1ccc(F)c(-c3cncnc3)c1)CC2` [Example 171]: the melting point fell in the range of 211 to 213 °C.

Consider `O=C(Nc1cc(F)cc(-c2cncnc2)c1)N1CCc2cc(Br)c(C(F)(F)F)cc21` [Example 172], for which the melting point lay in the range of 214 to 218 °C.

As for `O=C(Nc1ccc(F)c(-c2cccnc2)c1)N1CCc2cc(Br)c(C(F)(F)F)cc21` [Example 174], the melting point is 200 to 201 °C.

As to `COc1cc2c(cc1C(F)(F)F)N(C(=O)Nc1ccc(Oc3cccc(C#N)c3)nc1)CC2` [Example 175], the melting point fell in the range of 136 to 138 °C.

The compound `COc1cc2c(cc1C(F)(F)F)N(C(=O)Nc1ccc(Oc3ccc(C#N)cc3)nc1)CC2` [Example 176] registered a melting point of 188 to 189 °C.

For the origin of these results see US6638953B2, “Indole derivatives as 5-HT receptor antagonist” (SmithKline Beecham p.l.c., priority 1995, dated 2003).
